Experimental data published in patent US20260116845A1, “LIPIDS AND COMPOSITIONS THEREOF” (Kernal Biologics, Inc., priority 2023, published 2026).

Key:
AML12 Cell Line = test: Transfection of AML12 Cell Line with FLuc mRNA LNPs (ONE-Glo EX luciferase signal); assay type: cell-based; conditions: 200 ng Fluc mRNA-LNP, 24 hours
Outline: (§1)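 Firefly luciferase luminescence measured 24 h after transfection with 200 ng mRNA-LNP per well in Opti-MEM. Seeding: 5,000 cells/well for B16F10 and MC38.K, 20,000 for AML12. LNPs were pre-incubated 30 min with mouse serum; mRNA content determined by RiboGreen.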

B16F10 Cell Line = test: Transfection of B16F10 Cell Line with FLuc mRNA LNPs (ONE-Glo EX luciferase signal); assay type: cell-based; conditions: 200 ng Fluc mRNA-LNP, 24 hours
Outline: as §1

MC38.K Cell Line = test: Transfection of MC38.K Cell Line with FLuc mRNA LNPs (ONE-Glo EX luciferase signal); assay type: cell-based; conditions: 200 ng Fluc mRNA-LNP, 24 hours; for Total Luciferin Signal (RLU) In Vitro - MC38.K: Table 4
Outline: as §1

Liver = test: Ex-vivo luminescence signal from liver after IV Fluc mRNA LNPs in CD1 mice (IVIS); conditions: tail vein 1.0 mg/kg Day 0 and Day 2, imaging 18 hours after second dose; for Total Liver Tissue Luciferin Signal (Photons/s) Ex-vivo - CD1: Table 4
[1] = system: Macaca fascicularis Cynomolgus monkeys; test: NHP study 2: weekly IV infusion of hEPO mRNA-LNP; assay type: in vivo; conditions: weekly IV infusion 0.1 mg/kg hEPO mRNA-LNP
Experimental: Male cynomolgus monkeys (Biomere, Richmond CA) were 4-6 years old and weighed 4-7 kg at the initiation of dosing. Monkeys were housed in stainless steel cages and provided with Monkey Diet 5038 daily except during times of fasting. Filtered tap water was provided to the animals ad libitum including during fasting times. Temperature of the animal room was kept between 64-84° F., humidity of 30-70%, and with a light/dark cycle of 12 hours except during designated procedures. Pre-dosing treatment with Famotidine (0.5 mg/kg), Diphenhydramine (5 mg/kg), and Dexamethasone (1 mg/kg) was performed prior to dosing of LNPs. Animals received weekly intravenous IV infusions of human erythropoietin encapsulated mRNA lipid nanoparticles (Compound 23, hEPO mRNA-LNP, 0.1 mg/kg). A total of four doses were administered. Prior and after dosing, body weights and temperature were monitored and blood samples were collected pre-dose, 2, 6, 24, 48, and 168 hours. All procedures were conducted according to the approved IACUC guidelines. The results are shown in FIG. 14, FIG. 15, FIG. 16, and FIG. 17.

Balb/c mice = test: Multi-dose tolerability screening of NT-beta-Actin mRNA LNPs in naive Balb/c mice; assay type: in vivo; conditions: 1.0 mg/kg IV twice a week for four weeks
Experimental: Multi-dose Tolerability Screening of Compound 23-LNPs: Compound 23 and Benchmark 1 were formulated using a standard process method and injected (1.0 mg/kg, IV) twice a week for four weeks into naïve Balb/c mice. NT-beta-Actin mRNA LNPs were administered IV to Balb/c mice via the tail vein for a total of eight doses (twice a week for four consecutive weeks) at a concentration of 1.0 mg/kg. Bodyweights were monitored and blood was collected pre-dose, 24 hours post first dose, 24 hours post-fourth dose, and 24 hours post-eighth dose and analyzed for cytokines, blood chemistry, and liver/spleen weights. Data analysis was performed in Graphpad Prism 10. Values are reported as mean+/−standard deviation, unless specified otherwise. […] N=6 per group.

MC38.K tumors = test: Intratumor delivery of Firefly Luciferase mRNA-LNPs in MC38.K tumor-bearing mice (IVIS); assay type: in vivo; conditions: Albino B6 mice, MC38.K tumors 250 mm^3, 1.0 mg/kg intratumoral, IVIS 18 hours post dose
Experimental: Intratumor Delivery of Compound 23 versus Benchmark 1. Albino B6 mice were inoculated with MC38.K cancer cells. Once tumors reached 250 mm^3, 1.0 mg/kg of Firefly Luciferase mRNA-LNPs containing either Benchmark 1 or Compound 23 as the ionizable lipid component was dosed intratumorally. Takedown and IVIS imaging were performed 18 hours post dose. N=5 mice per group.

C57BL/6 mice = test: Multi-dose tolerability screening of NT-beta-Actin mRNA LNPs in MC38.K-inoculated C57BL/6 mice; assay type: in vivo; conditions: C57BL/6 mice with MC38.K, 1.0 mg/kg IV twice a week for two weeks
Experimental: NT-beta-Actin mRNA LNPs with different ionizable lipids were administered IV to C57BL/6 mice, inoculated with MC38.K cells, via the tail vein for a total of four doses (twice a week for two consecutive weeks) at a concentration of 1.0 mg/kg. Bodyweights were monitored and blood was collected pre-dose, 24 hours post first dose, 24 hours post fourth dose, and analyzed for cytokines, blood chemistry, and liver/spleen weights. Compounds 23, 99 and 101 were formulated using a peripheral process method. C57BL/6 mice were inoculated with MC38.K cells. Once tumors had grown, 1.0 mg/kg (Beta-Actin mRNA) of each LNP was intravenously administered twice a week for two weeks. […] N=6 per group for bodyweights, N=3 for blood analysis. Mean+/−SD.

[2] = Formulation of mRNA encapsulated lipid nanoparticles (microfluidic mixing, ribogreen assay); assay type: physicochemical; conditions: Table 4
Experimental: mRNA encapsulated lipid nanoparticles (mRNA LNPs) were formulated using microfluidic mixing with a PNI Ignite instrument. Briefly, lipids (ionizable: structural: helper: PEG) were dissolved in ethanol and mixed with and aqueous solution of mRNA. These mRNA-loaded dispersions were then neutralized via a buffer exchange with a pre-determined buffer overnight. Afterwards, formed LNPs were concentrated with Amicon filter centrifugation, filtered, concentration of mRNA determined through a ribogreen assay, and frozen at −80° C. until use.

hepatocytes = test: Comparative study of fluoro v. non-fluoro compounds: Firefly Luciferase transfection efficiency; assay type: cell-based; conditions: Firefly Luciferase expression in hepatocytes; pairs Compound 54 v. 58 and Compound 68 v. 67
Text: Transfection efficiency was compared between three pairs of compounds, Compound 54 v. Compound 58, Compound 68 v. Compound 67, and Compound 37 v. Compound 61. For each pair, the compounds only differ on one fluoro-substitution at the end of an alkyl chain. For example, the structures of Compound 54 and Compound 58 are shown below:
In vitro and in vivo comparison of Firefly Luciferase expression data of fluoro v. non-fluoro compounds were obtained according to procedure similar to those in Example 3 and Example 7. […] Compound 58 and Compound 68 v. Compound 67 in hepatocytes.

Spleen = test: Ex-vivo luminescence signal from spleen after IV Fluc mRNA LNPs in CD1 mice (IVIS); conditions: tail vein 1.0 mg/kg Day 0 and Day 2, imaging 18 hours after second dose, Table 5
liver, tumor, and spleen = test: Biodistribution of Fluc mRNA LNPs in MC38.K-inoculated Albino B6 mice (ex vivo luminescence); conditions: Albino B6 mice with MC38.K, 1.0 mg/kg IV, 18 hours
Experimental: Fluc mRNA LNPs were administered to Albino B6 mice, inoculated with MC38.K cells, via the tail vein at 1.0 mg/kg. Eighteen hours later, bioluminescence was measured using an IVIS Spectrum imager. Mice were treated with 150 mg/kg luciferin substrate administered via intraperitoneal injection. Afterwards, mice were euthanized, and the lung, liver, spleen, and tumor were harvested for ex vivo imaging. All procedures were conducted according to the approved IACUC guidelines. N=5 per group. Data analysis was performed in Graphpad Prism 10. Values are reported as mean+/−standard deviation, unless specified otherwise. Ex-Vivo luminescence of liver, tumor, and spleen organs after 1.0 mg/kg IV injection of Peripheral LNPs. N=4 mice per group. (Mean±SD, n=4/group).

Compound	Total Luciferin Signal (RLU) In Vitro - AML12 (AML12 Cell Line; Table 4) [RLU]	Total Luciferin Signal (RLU) In Vitro - B16F10 (B16F10 Cell Line; Table 4) [RLU]	Total Luciferin Signal (RLU) In Vitro - MC38.K (MC38.K Cell Line) [RLU]	Total Liver Tissue Luciferin Signal (Photons/s) Ex-vivo - CD1 (Liver) [Photons/s]	difference in transfection efficiency within fluoro v. non-fluoro pair (hepatocytes)	also measured
CCCCCCCCCOC(=O)CCCCCCCN(CCO)CCCCCCCC(=O)OC(CCCCCCCC)CCCCCCCCF (stereo not shown) [Compound 23]	4.66E+05	9.60E+05	2.00E+06	5.15E+09		tolerability (body weight, temperature, liver blood chemistry) ([1]; 4 doses): reasonable tolerability; generation of red blood cells (hematocrit, absolute reticulocyte counts) ([1]; four doses): consistent generation of red blood cells over four repeated doses; hEPO protein expression over repeated doses ([1]; four doses): consistent protein expression over repeated doses; clearance of the lipid from blood / serum ([1]; repeated doses): cleared from the blood without any observation of accumulation over repeated doses; bodyweights or survival rate (Balb/c mice; among Compound 23, Benchmark 1 and delivery buffer): Comparable bodyweights or survival rate; tolerability (Balb/c mice; versus delivery buffer): comparable tolerability; intratumor delivery performance (MC38.K tumors): comparable delivery performance as that of Benchmark 1; survival (C57BL/6 mice): all mice survived
CCCCCCCCCOC(=O)CCCCCCCN(CCF)CCCCCCCC(=O)OC(CCCCCCCC)CCCCCCCC [Compound 43]						mRNA encapsulation in LNP [2]: Inherent Lipid Properties Result in No mRNA Encapsulation
CCCCCCCCC(CCCCCCCC)OC(=O)CCCCCCCN(CCO)CCCCCCCOC(=O)CCCCCCCC=C(C)C [Compound 54, 7-((8-(heptadecan-9-yloxy)-8-oxooctyl)(2-hydroxyethyl)amino)heptyl 10-methylundec-9-enoate]	1.05E+06	7.25E+05	5.12E+06	8.29E+09	Statistically significant difference in transfection efficiency	
CCCCCCCCC(CCCCCCCCF)OC(=O)CCCCCCCN(CCO)CCCCCCCC(=O)OCCCCCCCC=C(C)C (stereo not shown) [Compound 58, 1-fluoroheptadecan-9-yl 8-((2-hydroxyethyl)(8-((9-methyldec-8-en-1-yl)oxy)-8-oxooctyl)amino)octanoate]	2.18E+06	4.03E+05	4.80E+06	9.65E+09	Statistically significant difference in transfection efficiency	
CCCCCCCCC(CCCCCCCCF)OC(=O)CCCCCCCN(CCCCO)CCCCCCC(C)C(=O)OCCCCCCCCC(C)C (stereo not shown) [Compound 67, 9-methyldecyl 8-((8-((1-fluoroheptadecan-9-yl)oxy)-8-oxooctyl)(4-hydroxybutyl)amino)-2-methyloctanoate]	4.35E+06	2.75E+06	3.24E+07	5.31E+09	Statistically significant difference in transfection efficiency	
CCCCCCCCC(CCCCCCCC)OC(=O)CCCCCCCN(CCCCO)CCCCCCC(C)C(=O)OCCCCCCCCC(C)C (stereo not shown) [Compound 68, 9-methyldecyl 8-((8-(heptadecan-9-yloxy)-8-oxooctyl)(4-hydroxybutyl)amino)-2-methyloctanoate]	2.89E+06	2.83E+06	1.60E+07	1.06E+10	Statistically significant difference in transfection efficiency	
CCCCCCCC/C=C\CCCCCCC1CN(CCOC(=O)CCN(C)C)CC(CCCCCC(=O)OC(CCCCCCCC)CCCCCCC(C)C)O1 (stereo not shown) [Compound 99, 2-methylheptadecan-9-yl (Z)-6-(4-(2-((3-(dimethylamino)propanoyl)oxy)ethyl)-6-(hexadec-7-en-1-yl)morpholin-2-yl)hexanoate]						Total Luciferin Signal (RLU) In Vitro - AML12 (AML12 Cell Line; Table 5): 1.00E+05 RLU; Total Luciferin Signal (RLU) In Vitro - B16F10 (B16F10 Cell Line; Table 5): 5.27E+05 RLU; Total Luciferin Signal (RLU) In Vitro-MC38 (MC38.K Cell Line; Table 5): 7.66E+04 RLU; Total Liver Tissue Luciferin Signal (Photons/s) In Vivo-Cd1 (Liver; Table 5): 1.81E+09 Photons/s; Total Spleen Tissue Luciferin Signal (Photons/s) In Vivo-Cd1 (Spleen): 2.78E+07 Photons/s; tolerability (C57BL/6 mice): improved tolerability; adverse clinical observations (C57BL/6 mice; compared to Compound 23 LNPs): less adverse clinical observations; reduction in white blood cells and lymphocytes in the blood (C57BL/6 mice; compared to Compound 23 LNPs): less of a reduction in white blood cells and lymphocytes; expression in liver and spleen (ex-vivo luminescence) (liver, tumor, and spleen): significantly less expression; expression in solid tumor tissue (ex-vivo luminescence) (liver, tumor, and spleen): nearly equivalent expression
